This is an account of results in patent EP4700040A1, “PEPTIDE AND LUMINESCENT COMPLEX CONTAINING SAME” (Shenzhen Loggene Life Science & Technology Co., Ltd., priority 2023, dated 2024).

The subject of experiment [1] is PCT. Briefly: Complementary activity of small subunits mutated at conserved positions, Furimazine substrate (Example 6). Particulars: MBP-PCT 3.3 ng/ml, supernatant. Type of experiment: biochemical, human. The protocol: Detection Methods: • (1) The concentration of large subunit-rSCFV5 fusion protein was diluted to 12.5 nM, and 15 µl was added per well; • (2) MBP-PCT fusion protein was diluted to 3.3 ng/ml with PBSAD, and 10 µl was added per well; • (3) HB2151 strain containing plasmids with different small subunit sequences were induced by IPTG at 30°C overnight, then treated with polymyxin B for 1.5h, and centrifuged to collect the supernatant, and 2.5µl supernatant was added per well; • (4) The above three components were slightly mixed, incubated at 37°C for 7 min, and Obuffer 6.37-3 containing Furimazine at a concentration of 25 µM was added, […], the luminescence signal value was detected using a bioluminescence detector; and • (5) Clones with RLU higher than 10,000 were picked. The substrate was replaced with CTZ-h substrate for retesting (Obuffer 6.37-3 containing CTZ-h at a concentration of 25 µM was added, and after 60 s, the luminescence signal value was detected using a bioluminescence detector), and a PBSAD control was added to test the signal-to-noise ratio.
In order to further determine whether these three conserved amino acid sequences were changed, this example constructed a random mutation library of these three positions, with a theoretical diversity of 8,000 and a library capacity of 10^6, and 2,000 single clones were picked. The method of protein induction and expression was the same as that in Example 1. The complementary activity was tested in the same manner as that in Example 4, but the signal-to-noise ratio was not retested with CTZ-h. Clones with different activity were randomly picked for sequencing.

Experiment [2] concerns human interleukin 6 (human IL6). The experiment can be described thus: Luciferase dual-antibody complementary activation assay for human IL6 (Example 7). The format is biochemical. To be noted: estimated by ((mean+3SD)-RLU0.5)/(RLU5-RLU0.5)*4.5+0.5. From the text: Expression and purification of human IL6 recombinant protein: An expression vector of human IL6 (UniProtKB ID: P05231, AA29~212) with six histidine-tagged (C-terminal) fusion proteins (SEQ ID NO: 90) was constructed. The fusion protein was recombinantly expressed in E. coli, and purified with nickel column. The protein purity was detected by denaturing SDS-polyacrylamide gel electrophoresis, and the protein concentration was detected by nucleic acid-protein quantification instrument.
Expression and purification of a fusion protein of the small and large subunits with IL6 antibody: prokaryotic expression plasmids of the fusion protein RB073-449-1 (SEQ ID NO: 91) of the small subunit peptide RB073 with human IL6 SCFV antibody 449-1, and the fusion protein OL-453 (SEQ ID NO: 92) of the large subunit with human IL6 SCFV antibody 453 were constructed. The fusion proteins were recombinantly expressed in E. coli, and purified with nickel column. The protein purity was detected by denaturing SDS-polyacrylamide gel electrophoresis, and the protein concentration was detected by nucleic acid-protein quantification instrument.
Test Methods • (1) Recombinant human IL6 protein was diluted with PBSA in 10-fold gradient starting from 5000 pg/ml, with 5 gradients in total. […]

Experiment [3] has as its system PCT. Briefly: Sensitivity and linear range for PCT detection of preferred small subunits (Example 5). Type of experiment: biochemical, human. To be noted: for luminescence value: normalized. As for the experimental part: Detection Methods: • (1) The concentration of large subunit-rSCFV5 fusion protein was diluted with PBSA to 8.3~25nM, and 15µl was added per well; • (2) MBP-PCT fusion proteins were diluted with PBSAD in a downward gradient starting from 2.5 µg/ml, and 10 µl was added per well; • (3) The rSCFV18-small subunit mutant-containing fusion protein was diluted with PBSA to 30~180 nM, and 15 µl was added per well; • (4) The above three components were slightly mixed, incubated at 37°C for 15 min, and Obuffer 6.37-3 containing CTZ-h at a concentration of 15 µM was added, and the luminescence signal value was immediately detected using a bioluminescence detector (the luminescence value was normalized);

Experiment [4] deals with PCT. The experiment can be described thus: Second library screening for PCT detection, clone supernatants, retest with CTZ-h (Example 4). Type of experiment: biochemical, human. As for the experimental part:
In order to further improve the signal-to-noise ratio and complementary activity of the luciferase dual-antibody complementary activation assay, novel complementary luciferase small subunits were prepared in this example. Large subunit-rSCFV5 fusion protein (SEQ ID NO: 87) was kept unchanged, and the small subunit sequence of the rSCFV18-RB073 fusion protein (SEQ ID NO: 89) were modified by semi-randomization. The theoretical diversity was 6912, the library capacity was 10^6, and 3,000 single clones were picked. The method of protein induction and expression was the same as that in Example 2.
Detection Methods: • (1) The concentration of large subunit-rSCFV5 fusion protein was diluted to 12.5 nM, and 15 µl was added per well; • (2) MBP-PCT fusion protein was diluted to 3.3 ng/ml with PBSAD, and 10 µl was added per well; • (3) HB2151 strain containing plasmids with different small subunit sequences were induced by IPTG at 30°C overnight, then treated with polymyxin B for 1.5h, and centrifuged to collect the supernatant, and 2.5µl supernatant was added per well; • (4) The above three components were slightly mixed, incubated at 37°C for 7 min, and Obuffer 6.37-3 containing Furimazine at a concentration of 25 µM was added, and after 3 min, the luminescence signal value was detected using a bioluminescence detector; and • (5) Clones with RLU higher than 10,000 were picked. The substrate was replaced with CTZ-h substrate for retesting (Obuffer 6.37-3 containing CTZ-h at a concentration of 25 µM was added, and after 60 s, the luminescence signal value was detected using a bioluminescence detector), and a PBSAD control was added to test the signal-to-noise ratio.

Turning to VEGYRLFDRKS [RB073], in the experiment with PCT [1] (3 min after Furimazine 25 µM), the “activity (luminescence signal value), 3 min” value came out at 46672. For the same sequence, in the experiment on PCT [1] (6 min after Furimazine 25 µM), the “activity (luminescence signal value), 6 min” value is recorded as 32973. In experiment [2], the “LLD (low limit of detection)” value is 0.79 pg/mL.

On to VTGYRLFEEIL [P114, reference compound], for which the luminescence value with PCT [3] (PCT 0.0, background) is 5000; in the experiment with PCT [3] (PCT 1 (pg/ml)), 5324; in the experiment on PCT [3] (PCT 3 (pg/ml)), 5403; with PCT [3] (PCT 10 (pg/ml)) it was 5314; in the experiment on PCT [3] (PCT 30 (pg/ml)), 5724; in the experiment with PCT [3] (PCT 100 (pg/ml)), 5429. The luminescence value in the experiment with PCT [3] (PCT 1000 (pg/ml)) came out at 18939; in the experiment on PCT [3] (PCT 10000 (pg/ml)), 99257; in the experiment with PCT [3] (PCT 100000 (pg/ml)), 804042; in the experiment on PCT [3] (PCT 250000 (pg/ml)) it was 1431884. The “Signal-to-noise ratio at 1000 pg/ml” value with PCT [3] (large subunit 8.3~25 nM, small subunit fusion 30~180 nM, CTZ-h 15 µM) worked out at 3.8. Further, in the experiment on PCT [4] (PCT+/PCT-, MBP-PCT 3.3 ng/ml, CTZ-h), the Signal-to-noise ratio was determined as 1.9. Further, the “PCT+” value with PCT [4] (luminescence signal value with MBP-PCT 3.3 ng/ml, large subunit-rSCFV5 12.5 nM, CTZ-h 25 µM, 60 s) came to 1493. In the experiment with PCT [4] (luminescence signal value, PBSAD control without PCT, large subunit-rSCFV5 12.5 nM, CTZ-h 25 µM, 60 s), this sequence returned a PCT- of 786.
